The values below come from patent US10111432B2, “Picolinamide N-oxide compounds with fungicidal activity” (Dow AgroSciences LLC, priority 2016, dated 2018).

Where two headings read alike, the source gives them in different places.

Assay [1] deals with Zymoseptoria tritici. Description: Fungicidal activity: leaf blotch of wheat (SEPTTR), disease control on wheat seedlings. The format is in vivo. The conditions noted are these: for pest or weed control at 121.5 g/ha: low volume application, 121.5 g/H; for pest or weed control at 100 ppm: high volume application. The protocol: Technical grades of materials were dissolved in acetone, which were then mixed with nine volumes of water (H2O) containing 110 ppm Triton X-100. The fungicide solutions were applied onto wheat seedlings using an automated booth sprayer to run-off. All sprayed plants were allowed to air dry prior to further handling. All fungicides were evaluated using the aforementioned method for their activity vs. all target diseases, unless stated otherwise. Wheat leaf blotch and brown rust activity were also evaluated using track spray applications, in which case the fungicides were formulated as EC formulations, containing 0.1% Trycol 5941 in the spray solutions. Wheat plants (variety Yuma) were grown from seed in a greenhouse in 50% mineral soil/50% soil-less Metro mix until the first leaf was fully emerged, with 7-10 seedlings per pot. These plants were inoculated with an aqueous spore suspension of Zymoseptoria tritici either prior to or after fungicide treatments. After inoculation the plants were kept in 100% relative humidity (one day in a dark dew chamber followed by two to three days in a lighted dew chamber at 20° C.) to permit spores to germinate and infect the leaf. The plants were then transferred to a greenhouse set at 20° C. for disease to develop. When disease symptoms were fully expressed on the 1st leaves of untreated plants, infection levels were assessed on a scale of 0 to 100 percent disease severity. Percent disease control was calculated using the ratio of disease severity on treated plants relative to untreated plants.

In assay [2] the test system is Puccinia triticina. Description: Fungicidal activity: wheat brown rust (PUCCRT), disease control on wheat seedlings. As to conditions: for pest or weed control at 121.5 g/ha: low volume application, 121.5 g/H; for pest or weed control at 100 ppm: high volume application. The format is in vivo. As to the method:
Technical grades of materials were dissolved in acetone, which were then mixed with nine volumes of water (H2O) containing 110 ppm Triton X-100. The fungicide solutions were applied onto wheat seedlings using an automated booth sprayer to run-off. All sprayed plants were allowed to air dry prior to further handling. All fungicides were evaluated using the aforementioned method for their activity vs. all target diseases, unless stated otherwise. Wheat leaf blotch and brown rust activity were also evaluated using track spray applications, in which case the fungicides were formulated as EC formulations, containing 0.1% Trycol 5941 in the spray solutions. Wheat plants (variety Yuma) were grown from seed in a greenhouse in 50% mineral soil/50% soil-less Metro mix until the first leaf was fully emerged, with 7-10 seedlings per pot. These plants were inoculated with an aqueous spore suspension of Puccinia triticina either prior to or after fungicide treatments. After inoculation the plants were kept in a dark dew room at 22° C. with 100% relative humidity overnight to permit spores to germinate and infect the leaf. The plants were then transferred to a greenhouse set at 24° C. for disease to develop. Fungicide formulation, application and disease assessment followed the procedures as described in the Example A. Results of the evaluations are shown below in Table 4.

Setting [3] is: 24 h, 1 day protectant, read-out: SEPTTR disease control, 1DP, LV activity at 121.5 g/H.
The mark [4] stands for this setting: 72 h, 3 day curative, read-out: SEPTTR disease control, 3DC, LV activity at 121.5 g/H.
Setting [5] is: 24 h, 1 day protectant, read-out: PUCCRT disease control, 1DP, LV activity at 121.5 g/H.
[6] abbreviates: 72 h, 3 day curative, read-out: PUCCRT disease control, 3DC, LV activity at 121.5 g/H.

On to `COc1ccccc1C(c1ccccc1OC)[C@H](C)OC(=O)[C@H](C)NC(=O)c1c(O)c(OC)cc[n+]1[O-]` [Compound 30], for which the pest or weed control at 121.5 g/ha was greater than 80% in assay [1] (setting [3]), greater than 80% in assay [1] (setting [4]), no more than 80% in assay [2] (setting [5]) and no more than 80% in assay [2] (setting [6]).
In the case of `COc1cc[n+]([O-])c(C(=O)N[C@@H](C)C(=O)O[C@@H](C)[C@@H](c2ccccc2)c2ccc(F)c(C)c2)c1O` [Compound 31], the pest or weed control at 100 ppm in assay [1] (24 h, 1 day protectant, read-out: SEPTTR disease control, 1DP, HV activity at 100 ppm) is greater than 80%; in assay [1] (72 h, 3 day curative, read-out: SEPTTR disease control, 3DC, HV activity at 100 ppm), greater than 80%; in assay [2] (24 h, 1 day protectant, read-out: PUCCRT disease control, 1DP, HV activity at 100 ppm), greater than 80%; in assay [2] (72 h, 3 day curative, read-out: PUCCRT disease control, 3DC, HV activity at 100 ppm) it was greater than 80%. Also, the pest or weed control at 121.5 g/ha in assay [1] (setting [3]) was greater than 80%; in assay [1] (setting [4]), greater than 80%; in assay [2] (setting [5]), greater than 80%; in assay [2] (setting [6]), no more than 80%.
On to `CCOc1cc(F)ccc1C(c1ccc(F)cc1OCC)[C@H](C)OC(=O)[C@H](C)NC(=O)c1c(O)c(OC)cc[n+]1[O-]` [Compound 32], for which the pest or weed control at 121.5 g/ha in assay [1] (setting [3]), in assay [1] (setting [4]) and in assay [2] (setting [5]) was no more than 80% in each case.
With `COc1cc[n+]([O-])c(C(=O)N[C@@H](C)C(=O)O[C@@H](C)[C@H](c2ccccc2)c2ccc(C)cc2F)c1O` [Compound 33], the pest or weed control at 121.5 g/ha was greater than 80% in assay [1] (setting [3]), no more than 80% in assay [1] (setting [4]) and no more than 80% in assay [2] (setting [5]).
In the case of `COc1cc[n+]([O-])c(C(=O)N[C@@H](C)C(=O)O[C@@H](C)C(c2ccc(Cl)cc2)c2ccc(Cl)cc2)c1O` [Compound 34], the pest or weed control at 121.5 g/ha in assay [1] (setting [3]), in assay [1] (setting [4]) and in assay [2] (setting [5]) was greater than 80% in each case.
Consider `COc1cccc(C(c2cccc(OC)c2)[C@H](C)OC(=O)[C@H](C)NC(=O)c2c(O)c(OC)cc[n+]2[O-])c1` [Compound 36], for which the pest or weed control at 121.5 g/ha in assay [1] (setting [3]) and in assay [2] (setting [5]) was no more than 80% in each case.
`COc1cc(Cl)ccc1C(c1ccc(Cl)cc1OC)[C@H](C)OC(=O)[C@H](C)NC(=O)c1c(O)c(OC)cc[n+]1[O-]` [Compound 37]: the figures for the pest or weed control at 121.5 g/ha in assay [1] (setting [3]), in assay [1] (setting [4]) and in assay [2] (setting [5]) were greater than 80%, no more than 80% and greater than 80%, respectively.
In the case of `COc1cc[n+]([O-])c(C(=O)N[C@@H](C)C(=O)O[C@@H](C)[C@H](c2ccc(F)cc2)c2ccc(F)cc2C)c1O` [Compound 38], the pest or weed control at 121.5 g/ha was greater than 80% in assay [1] (setting [3]), greater than 80% in assay [1] (setting [4]) and no more than 80% in assay [2] (setting [5]).
For the compound `COc1cc[n+]([O-])c(C(=O)N[C@@H](C)C(=O)O[C@@H](C)C(c2ccc(C)cc2)c2ccc(C)cc2)c1O` [Compound 39], the pest or weed control at 121.5 g/ha was greater than 80% in assay [1] (setting [3]), no more than 80% in assay [1] (setting [4]) and no more than 80% in assay [2] (setting [5]).
